From patent publication US8729258B2, “Luminescent macrocyclic lanthanide complexes” (The Regents of the University of California, priority 2006, dated 2014)

Columns and labels:
streptavidin = streptavidin (Streptomyces avidinii, UniProt P22629); assay: Non-specific interaction with protein (streptavidin), consecutive G50 gel filtration spin columns; assay type: binding; conditions: second and third consecutive gel filtration spin columns after conjugation of activated ester to streptavidin
Method: It was therefore important to determine the tendency of the novel ligands to non-specifically interact with proteins. Sulfo-NHS ester and NHS ester derivatives of compound 5 were synthesized and conjugated to streptavidin. For comparison, the NHS ester of ligand 2 was also conjugated to streptavidin. Streptavidin was equilibrated in carbonate buffer, pH 9, at a concentration of approximately 130 μM. A DMF solution of the activated esters of each ligand was added to the protein at a final concentration of approximately 1 mM. The mixtures were allowed to incubate at 4° C. for 1 h. The metal is added either before or after conjugation of the ligand to the protein. Non-conjugated ligand was separated from conjugated protein using a G50 gel filtration centrifugal spin column technique (Penefsky, H. S, Methods Enzymol 1979, 56:527-30). This technique dilutes protein solutions to a lesser extent than conventional gel filtration techniques. Consecutive spin columns were run on a single protein sample solution to evaluate the extent of non-specific absorption of ligand. Following a single gel filtration separation, most of the excess ligand is removed and left at the top of the gel bed. A second spin column treatment should leave no further ligand at the top of the second column unless non-covalent association of the ligand with the protein occurs.

[1] = Kinetic stability of Tb complexes in various media at room temperature; conditions: 5 nM Tb-complex, various media incl. 1% acetic acid and 1 mM EDTA, 0.05% Tween-80, room temperature
Method: In order to investigate the stability of macrocyclic ligands further, the stabilities of different Tb-complexes were determined using a variety of different media, including 1% acetic acid and 1 mM EDTA. […] Each stock solution was then diluted 200× into different test solutions in polypropylene microcentrifuge tubes to a final concentration of 5 nM Tb-complex. Each test solution also contained 0.05% Tween-80. The test solutions were allowed to incubate at room temperature. Samples were taken at indicated time points, evaluated in triplicate and luminescence was recorded using standard time-resolved luminescence settings and 340 nm and 490 excitation and emission filters, respectively.

streptavidin, sequence (P22629 25-183): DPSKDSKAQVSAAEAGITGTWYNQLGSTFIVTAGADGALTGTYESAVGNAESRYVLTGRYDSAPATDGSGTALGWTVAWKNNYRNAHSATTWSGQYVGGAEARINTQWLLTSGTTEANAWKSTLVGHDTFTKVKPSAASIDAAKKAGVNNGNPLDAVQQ

CNC(=O)c1cc(C(=O)NC)c(O)c(C(=O)NCCN(CCNC(=O)c2cc(C(=O)NC)cc(C(=O)NC)c2O)CCN(CCNC(=O)c2cc(C(=O)NC)cc(C(=O)NC)c2O)CCNC(=O)c2cc(C(=O)NCCC(=O)O)cc(C(=O)NC)c2O)c1 [compound 2, reference compound]
residual luminescence of ligand left at the top of the gel bed (streptavidin): high degree of residual luminescence

NCCN1CCNC(=O)c2cccc(c2O)C(=O)NCCN(CCNC(=O)c2cccc(C(N)=O)c2O)CCN2CCNC(=O)c3cccc(c3O)C(=O)NCCN(CCNC(=O)c3cccc(c3O)C(=O)NCC2)CC1 [compound 3]
stability of terbium complex compared to non-restrained ligand (1) [1]: significant increase in stability

O=C(O)CCCC(=O)NCCCCC1CN2CCNC(=O)c3cccc(c3O)C(=O)NCCN(CCNC(=O)c3cccc(c3O)C(=O)N1)CCN1CCNC(=O)c3cccc(c3O)C(=O)NCCN(CCNC(=O)c3cccc(c3O)C(=O)NCC1)CC2 (stereo not drawn) [compound 5a, GlutarLysBH(2,2)IAM]
stability of terbium complex compared to non-restrained ligand (1) [1]: significant increase in stability
